Five compounds from ChEMBL document CHEMBL1132817 (Bioorg Med Chem Lett, 2000) can be followed below.

For assay [1], the target named is T1, M-phase inducer phosphatase 2 (Homo sapiens, UniProt P30305).
T1 sequence (P30305 whole entry): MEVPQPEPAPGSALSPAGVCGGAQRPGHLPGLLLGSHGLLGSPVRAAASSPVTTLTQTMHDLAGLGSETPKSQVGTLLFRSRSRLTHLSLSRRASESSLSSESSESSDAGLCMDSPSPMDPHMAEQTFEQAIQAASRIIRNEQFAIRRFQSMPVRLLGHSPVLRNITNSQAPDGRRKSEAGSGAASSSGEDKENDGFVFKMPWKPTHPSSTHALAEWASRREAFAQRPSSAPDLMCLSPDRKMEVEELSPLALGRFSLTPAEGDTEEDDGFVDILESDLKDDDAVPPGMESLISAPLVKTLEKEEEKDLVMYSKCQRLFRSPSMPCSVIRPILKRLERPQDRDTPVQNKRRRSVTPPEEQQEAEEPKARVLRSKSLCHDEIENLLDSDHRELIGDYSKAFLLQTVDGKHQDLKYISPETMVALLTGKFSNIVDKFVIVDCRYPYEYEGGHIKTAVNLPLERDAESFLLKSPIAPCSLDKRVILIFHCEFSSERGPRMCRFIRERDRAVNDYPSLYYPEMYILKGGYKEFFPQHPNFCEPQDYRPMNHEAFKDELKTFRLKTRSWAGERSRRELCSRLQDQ
The assay can be described thus: The compound was tested for its inhibitory activity against Cell division cycle 25B.

Assay [2] has as its target T2, M-phase inducer phosphatase 1 (Homo sapiens, UniProt P30304).
T2 sequence (P30304 whole entry): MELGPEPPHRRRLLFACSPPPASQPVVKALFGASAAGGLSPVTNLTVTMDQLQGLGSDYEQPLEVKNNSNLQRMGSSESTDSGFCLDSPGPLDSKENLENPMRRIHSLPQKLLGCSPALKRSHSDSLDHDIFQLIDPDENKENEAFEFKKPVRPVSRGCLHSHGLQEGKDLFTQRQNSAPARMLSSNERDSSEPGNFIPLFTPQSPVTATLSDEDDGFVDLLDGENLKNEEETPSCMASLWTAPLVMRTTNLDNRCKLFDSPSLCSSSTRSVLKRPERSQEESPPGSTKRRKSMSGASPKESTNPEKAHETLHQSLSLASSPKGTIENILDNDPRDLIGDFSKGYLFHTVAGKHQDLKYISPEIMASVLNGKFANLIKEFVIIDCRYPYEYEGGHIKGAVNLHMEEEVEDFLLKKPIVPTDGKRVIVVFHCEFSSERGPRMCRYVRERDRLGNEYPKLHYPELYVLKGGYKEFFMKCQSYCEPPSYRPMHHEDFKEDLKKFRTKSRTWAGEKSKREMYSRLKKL
The assay can be described thus: The compound was tested for its inhibitory activity against Cell division cycle 25A.

Assay [3] has as its system SBC-5. The assay can be described thus: The compound was tested for its inhibitory activity against SBC-5 human lung cancer cell line. Format: functional, cell-based.
In assay [4] the test system is HL-60. The assay can be described thus: The compound was tested for its inhibitory activity against HL-60 human leukemia cell line. In kind it is functional, cell-based.

As for `C=C(C)CCC[C@]1(C)CCC[C@@H]2C1=CC[C@@H](C)[C@@H]2C[C@H](O)C1=CC(=O)OC1O` (some centres undefined), the IC50 (commonly the concentration needed to halve the response being measured) stood at 27 µM in assay [1], 15 µM in assay [2] and 4.4 µM in assay [3].
Turning to `C=C(C)CCC[C@]1(C)CCC[C@@H]2C1=CC[C@@H](C)[C@]2(C)C[C@H](O)C1=CC(=O)OC1O` (some centres undefined), the IC50 turned out to be 18 µM in assay [1], 1 µM in assay [4] and 1.3 µM in assay [3].
For the compound `CC1(CC(O)C2=CC(=O)OC2O)CCCCC1` (centres undefined), the IC50 was more than 300 µM in assay [1], more than 300 µM in assay [2] and 12 µM in assay [3].
Turning to `C=C(C)CCC[C@@]1(C)CCC[C@H]2C1=CC[C@H](C)[C@]2(C)C[C@H](O)C1=CC(=O)O[C@@H]1O` (stereo in doubt), the IC50 in assay [1] was found to be 19 µM; in assay [3], 16 µM.
In the case of `C=C(C)CCC[C@]1(C)CCC[C@@H]2C1=CC[C@@H](C)[C@@]2(C)C[C@@H](O)C1=CC(=O)O[C@H]1O` [DYSIDIOLIDE], the results for the 50% inhibitory concentration (IC50) in assay [1], in assay [4] and in assay [3] were 87 µM, 7.1 µM and 5.4 µM, respectively.
